US10208030B2, “GPR119 agonist compounds” (Mankind Pharma Ltd., priority 2016, dated 2019)

Molecular target: T1, hGPR119 (Homo sapiens, UniProt Q8TDV5)
T1 construct: expressed in transfected cells; host or cells: CHO cells (CHO-hGPR119)
T1 sequence (Q8TDV5 1-335): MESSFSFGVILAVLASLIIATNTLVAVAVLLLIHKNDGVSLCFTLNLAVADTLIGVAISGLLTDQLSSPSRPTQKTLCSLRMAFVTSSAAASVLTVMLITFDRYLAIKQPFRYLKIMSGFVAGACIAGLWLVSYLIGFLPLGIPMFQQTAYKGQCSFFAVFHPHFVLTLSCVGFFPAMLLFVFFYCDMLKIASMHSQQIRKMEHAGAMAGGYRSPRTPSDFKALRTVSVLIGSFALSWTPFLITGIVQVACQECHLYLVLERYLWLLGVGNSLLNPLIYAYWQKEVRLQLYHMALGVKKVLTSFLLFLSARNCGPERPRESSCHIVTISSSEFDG
Test: In vitro cyclic AMP assay (Cisbio HTRF) in CHO-hGPR119 cells
Assay type: cell-based
Conditions: 1 h, cAMP, 1 μM, 60 min, read-out: Induction (% induction at 1 μM)
Method: cAMP measurements were done using Cisbio dynamic 2 HTRF kit according to the manufacturer's protocol. Briefly, CHO-hGPR119 cells were plated at a cell density of 5000 cells/well/5 μl into a white small volume 384 well plate. The final concentrations of IBMX and DMSO used were 1 mM and 0.5% respectively. Cells were treated with various concentrations of the test compound for 60 min at room temperature. Cells were lysed by buffer containing Anti-cAMP antibody and d2-cAMP reagents and incubated for 1 hour at room temperature. HTRF was measured at 337 nm excitation and emission wavelengths of 665 nm and 620 nm on a microplate reader (Flurostar, BMG Labtech). Graphpad prism software was utilized for EC50 determinations.

activation at 1 µM	SMILES
7%	CC(C)c1noc(N2CCC(Oc3nsc(-c4ccc(S(C)(=O)=O)nc4)n3)CC2)n1 [Compound 1119, 5-(3-(1-(3-isopropyl-1,2,4-oxadiazol-5-yl)piperidin-4-yloxy)-1,2,4-thiadiazol-5-yl)-2-(methylsulfonyl)pyridine]
6%	CS(=O)(=O)c1ccc(OCc2cn3nc(C4CCN(Cc5ccccc5)CC4)sc3n2)cc1 [Compound 1038, 2-(1-benzylpiperidin-4-yl)-6-((4-(methylsulfonyl)phenoxy)methyl)imidazo[2,1-b][1,3,4]thiadiazole]
39%	CC(C)c1noc(N2CCC(COc3nn4cc(-c5ccc(S(C)(=O)=O)cc5)nc4s3)CC2)n1 [Compound 1017, 3-isopropyl-5-(4-(((6-(4-(methylsulfonyl)phenyl)imidazo[2,1-b][1,3,4]thiadiazol-2-yl)oxy)methyl)piperidin-1-yl)-1,2,4-oxadiazole]
79%	CC(C)c1noc(N2CCC(C(C)Oc3nn4c(F)c(-c5ccc(S(C)(=O)=O)cc5)nc4s3)CC2)n1 (stereo not drawn) [Compound 1061, 5-(4-(1-((5-fluoro-6-(4-(methylsulfonyl)phenyl)imidazo[2,1-b][1,3,4]thiadiazol-2-yl)oxy)ethyl)piperidin-1-yl)-3-isopropyl-1,2,4-oxadiazole]
72%	CC(C)c1noc(N2CCC(C(C)Oc3nn4cc(-c5ccc(C(F)(F)F)nc5)nc4s3)CC2)n1 (stereo in doubt) [Compound 1084, 2-((S)-1-(1-(3-isopropyl-1,2,4-oxadiazol-5-yl)piperidin-4-yl)ethoxy)-6-(6-(trifluoromethyl)pyridin-3-yl)imidazo[2,1-b][1,3,4]thiadiazole]
26%	CC(C)c1noc(C2CCN(c3nn4cc(-c5ccc(C#N)cc5)nc4s3)CC2)n1 [Compound 1046, 4-(2-(4-(3-isopropyl-1,2,4-oxadiazol-5-yl)piperidin-1-yl)imidazo[2,1-b][1,3,4]thiadiazol-6-yl)benzonitrile]
6%	CC(C)c1noc(N2CCC(Oc3nc(N(C)c4ccc(S(C)(=O)=O)nc4)ns3)CC2)n1 [Compound 1124, N-(5-(1-(3-isopropyl-1,2,4-oxadiazol-5-yl)piperidin-4-yloxy)-1,2,4-thiadiazol-3-yl)-N-methyl-6-(methylsulfonyl)pyridin-3-amine]
63%	CC(C)c1noc(N2CCC(C(C)Oc3nn4cc(-c5cncs5)nc4s3)CC2)n1 (stereo not drawn) [Compound 1111, 2-(1-(1-(3-isopropyl-1,2,4-oxadiazol-5-yl)piperidin-4-yl)ethoxy)-6-(thiazol-5-yl)imidazo[2,1-b][1,3,4]thiadiazole]
62%	CC(C)c1noc(N2CCC([C@@H](C)Oc3nn4cc(-c5ccnc(F)c5)nc4s3)CC2)n1 [Compound 1065, (R)-5-(4-(1-((6-(2-fluoropyridin-4-yl)imidazo[2,1-b][1,3,4]thiadiazol-2-yl)oxy)ethyl)piperidin-1-yl)-3-isopropyl-1,2,4-oxadiazole]
82%	CC(C)c1noc(N2CCC(C(C)Oc3nn4cc(-c5ccc(S(C)(=O)=O)cc5)nc4s3)CC2)n1 (stereo not drawn) [Compound 1057, 3-isopropyl-5-(4-(1-((6-(4-(methylsulfonyl)phenyl)imidazo[2,1-b][1,3,4]thiadiazol-2-yl)oxy)ethyl)piperidin-1-yl)-1,2,4-oxadiazole]
71%	CC(C)c1noc(C2CCN(c3nn4c(Cl)c(-c5ccc(S(C)(=O)=O)cc5)nc4s3)CC2)n1 [Compound 1044, 5-(1-(5-chloro-6-(4-(methylsulfonyl)phenyl)imidazo[2,1-b][1,3,4]thiadiazol-2-yl)piperidin-4-yl)-3-isopropyl-1,2,4-oxadiazole]
76%	CC(C)c1noc(N2CCC(C(C)Oc3nn4cc(-c5ccc(S(C)(=O)=O)nc5)nc4s3)CC2)n1 (stereo not drawn) [Compound 1055, 3-isopropyl-5-(4-(1-((6-(6-(methylsulfonyl)pyridin-3-yl)imidazo[2,1-b][1,3,4]thiadiazol-2-yl)oxy)ethyl)piperidin-1-yl)-1,2,4-oxadiazole]
